According to the CheMixHub viscosity set:

Assay: xn = mol fraction of the nth substance listed

C=C(C)[C@@H]1CC=C(C)CC1 + CC12CCC(CC1)C(C)(C)O2
viscosity [mPa·s], 101.33 kPa
Settings | 298.15 K | 313.15 K
x1 = 0.0715 | 2.345 | 1.741
x1 = 0.1121 | 2.23 | 1.664
x1 = 0.2018 | 1.995 | 1.504
x1 = 0.327 | 1.704 | 1.305
x1 = 0.4614 | 1.439 | 1.123
x1 = 0.5584 | 1.279 | 1.011
x1 = 0.6401 | 1.162 | 0.929
x1 = 0.7336 | 1.05 | 0.851
x1 = 0.8226 | 0.963 | 0.785
x1 = 0.8648 | 0.928 | 0.759
x1 = 0.9499 | 0.872 | 0.716

C=C(C)[C@@H]1CC=C(C)CC1 + CCCCCC
298.15 K, 101.33 kPa
Settings | viscosity [mPa·s]
x2 = 0.0279 | 0.825
x2 = 0.0568 | 0.806
x2 = 0.113 | 0.759
x2 = 0.2079 | 0.686
x2 = 0.2991 | 0.622
x2 = 0.4219 | 0.549
x2 = 0.5543 | 0.477
x2 = 0.6701 | 0.421
x2 = 0.7542 | 0.386
x2 = 0.8966 | 0.334
x2 = 0.9273 | 0.326
x2 = 0.972 | 0.305

CC(=O)CC(C)C + CC(C)CCO
viscosity [mPa·s]
Settings | x1 = 0.1006 | x1 = 0.2027 | x1 = 0.3201 | x1 = 0.3948 | x1 = 0.5073 | x1 = 0.6072 | x1 = 0.7013 | x1 = 0.8032 | x1 = 0.8927
298.15 K, 101 kPa | 2.58 | 1.89 | 1.4 | 1.2 | 0.965 | 0.839 | 0.728 | 0.648 | 0.595
298.15 K, 101.3 kPa | 2.58 | 1.89 | 1.4 | 1.2 | 0.965 | 0.839 | 0.728 | 0.648 | 0.595
303.15 K, 101.3 kPa | 2.26 | 1.69 | 1.28 | 1.1 | 0.903 | 0.781 | 0.682 | 0.617 | 0.566
308.15 K, 101.3 kPa | 1.99 | 1.51 | 1.17 | 1.01 | 0.837 | 0.728 | 0.64 | 0.579 | 0.534
313.15 K, 101.3 kPa | 1.75 | 1.36 | 1.05 | 0.926 | 0.766 | 0.681 | 0.602 | 0.545 | 0.506

CC(=O)CC(C)C + CCCCCCCCCO
viscosity [mPa·s], 100 kPa
Settings | x1 = 0.0834 | x1 = 0.1721 | x1 = 0.2398 | x1 = 0.3469 | x1 = 0.4365 | x1 = 0.5577 | x1 = 0.6608 | x1 = 0.7339 | x1 = 0.8594 | x1 = 0.9502
293.15 K | 9.91 | 8.52 | 7.62 | 6.42 | 5.48 | 4.28 | 3.31 | 2.64 | 1.6 | 0.93
303.15 K | 6.85 | 5.94 | 5.34 | 4.49 | 3.86 | 3.05 | 2.42 | 1.99 | 1.27 | 0.78
313.15 K | 4.92 | 4.29 | 3.87 | 3.27 | 2.82 | 2.27 | 1.82 | 1.51 | 1 | 0.65
323.15 K | 3.63 | 3.18 | 2.88 | 2.45 | 2.13 | 1.73 | 1.4 | 1.18 | 0.81 | 0.55

C=C(C)[C@@H]1CC=C(C)CC1 + C=CC(C)(O)CCC=C(C)C
viscosity [mPa·s], 101.33 kPa
Settings | x1 = 0.0422 | x1 = 0.1332 | x1 = 0.2273 | x1 = 0.3523 | x1 = 0.4816 | x1 = 0.562 | x1 = 0.6389 | x1 = 0.7679 | x1 = 0.8478 | x1 = 0.9236
298.15 K | 4.062 | 3.237 | 2.695 | 2.072 | 1.626 | 1.429 | 1.282 | 1.101 | 1.013 | 0.933
313.15 K | 2.37 | 2.025 | 1.731 | 1.427 | 1.196 | 1.086 | 0.998 | 0.877 | 0.814 | 0.755

CC(=O)CC(C)C + CCCCCCCCCCO
viscosity [mPa·s], 100 kPa
Settings | x1 = 0.0846 | x1 = 0.1569 | x1 = 0.2402 | x1 = 0.3455 | x1 = 0.4437 | x1 = 0.5617 | x1 = 0.6591 | x1 = 0.7447 | x1 = 0.8561 | x1 = 0.9486
293.15 K | 12.8 | 11.5 | 10.21 | 8.72 | 7.39 | 5.89 | 4.69 | 3.64 | 2.29 | 1.18
303.15 K | 8.66 | 7.8 | 6.94 | 5.94 | 5.05 | 4.05 | 3.24 | 2.55 | 1.65 | 0.92
313.15 K | 6.09 | 5.5 | 4.91 | 4.21 | 3.59 | 2.9 | 2.34 | 1.85 | 1.23 | 0.74
323.15 K | 4.44 | 4.02 | 3.58 | 3.08 | 2.64 | 2.15 | 1.75 | 1.4 | 0.96 | 0.61

O=C1CCCCC1 + c1ccccc1
viscosity [mPa·s]
Settings | 298.15 K | 303.15 K | 308.15 K
101 kPa, x1 = 0.0989 | 0.674 | – | –
101 kPa, x1 = 0.1983 | 0.731 | – | –
101 kPa, x1 = 0.2984 | 0.8 | – | –
101 kPa, x1 = 0.3848 | 0.865 | – | –
101 kPa, x1 = 0.5166 | 0.856 | – | –
101 kPa, x1 = 0.5909 | 1.086 | – | –
101 kPa, x1 = 0.6876 | 1.37 | – | –
101 kPa, x1 = 0.7775 | 1.481 | – | –
101 kPa, x1 = 0.8574 | 1.534 | – | –
101.33 kPa, x1 = 0.1014 | 0.661 | 0.616 | 0.574
101.33 kPa, x1 = 0.1996 | 0.726 | 0.676 | 0.629
101.33 kPa, x1 = 0.3037 | 0.803 | 0.747 | 0.694
101.33 kPa, x1 = 0.4039 | 0.888 | 0.824 | 0.771
101.33 kPa, x1 = 0.502 | 0.996 | 0.942 | 0.85
101.33 kPa, x1 = 0.5997 | 1.122 | 1.026 | 0.945
101.33 kPa, x1 = 0.7018 | 1.28 | 1.175 | 1.084
101.33 kPa, x1 = 0.8023 | 1.472 | 1.346 | 1.236
101.33 kPa, x1 = 0.9237 | 1.773 | 1.61 | 1.472

CCCCCCCCCCCCCC[P+](CCCCCC)(CCCCCC)CCCCCC.c1nnc[n-]1 + CCCCCCn1cc[n+](C)c1.O=S(=O)([N-]S(=O)(=O)C(F)(F)F)C(F)(F)F
viscosity [mPa·s], 100 kPa
Settings | x1 = 0.107 | x1 = 0.208 | x1 = 0.307 | x1 = 0.4 | x1 = 0.507 | x1 = 0.622 | x1 = 0.718 | x1 = 0.805 | x1 = 0.9
293.15 K | 132 | 220 | 308 | 452 | 677 | 901 | 1162 | 1349 | 1458
298.15 K | 103 | 165 | 227 | 329 | 485 | 633 | 811 | 932 | 1013
303.15 K | 81 | 127 | 171 | 245 | 355 | 456 | 579 | 664 | 720
308.15 K | 65 | 99 | 132 | 186 | 267 | 337 | 422 | 484 | 524
313.15 K | 54 | 79 | 104 | 145 | 204 | 253 | 314 | 359 | 389
318.15 K | – | 64 | 83 | 115 | 159 | 194 | 239 | 273 | 296
323.15 K | – | 53 | 67 | 93 | 127 | 152 | 185 | 211 | 229

O=C1CCCCC1 + CCC(C)=O
298.15 K, 101 kPa
Settings | viscosity [mPa·s]
x1 = 0.0755 | 0.45
x1 = 0.1552 | 0.523
x1 = 0.2395 | 0.576
x1 = 0.3288 | 0.655
x1 = 0.4235 | 0.739
x1 = 0.5243 | 0.868
x1 = 0.6316 | 1.03
x1 = 0.7461 | 1.258
x1 = 0.8686 | 1.587

CCCCCCO + Cc1ccccc1
viscosity [mPa·s], 101 kPa
Settings | x2 = 0.1151 | x2 = 0.2265 | x2 = 0.3342 | x2 = 0.4384 | x2 = 0.5394 | x2 = 0.6372 | x2 = 0.7321 | x2 = 0.8241 | x2 = 0.9133
303.15 K | 2.859 | 2.167 | 1.692 | 1.351 | 1.099 | 0.882 | 0.7364 | 0.6235 | 0.5592
313.15 K | 2.206 | 1.701 | 1.341 | 1.097 | 0.9164 | 0.7593 | 0.6439 | 0.5569 | 0.5069
323.15 K | 1.661 | 1.321 | 1.057 | 0.8845 | 0.7532 | 0.6516 | 0.5418 | 0.4674 | 0.4336
